Measurements: patent US8436000B2, “Substituted carbamate derivatives as modulators of corticotropin-releasing factor receptor activity” (Bristol-Myers Squibb Company, priority 2008, dated 2013)

How the values were obtained:
[1] = biological target: T1, CRF1 (Rattus norvegicus, UniProt P35353); experiment: CRF1 Binding Assay (125I-ovine-CRF displacement, rat frontal cortex homogenate); conditions: 125I-o-CRF
T1 construct: Frozen rat frontal cortex was thawed rapidly in assay buffer; tissue Analytical Biological Services, Inc. (Wilmington, Del.); host or cells: rat frontal cortex
T1 sequence (P35353 24-415): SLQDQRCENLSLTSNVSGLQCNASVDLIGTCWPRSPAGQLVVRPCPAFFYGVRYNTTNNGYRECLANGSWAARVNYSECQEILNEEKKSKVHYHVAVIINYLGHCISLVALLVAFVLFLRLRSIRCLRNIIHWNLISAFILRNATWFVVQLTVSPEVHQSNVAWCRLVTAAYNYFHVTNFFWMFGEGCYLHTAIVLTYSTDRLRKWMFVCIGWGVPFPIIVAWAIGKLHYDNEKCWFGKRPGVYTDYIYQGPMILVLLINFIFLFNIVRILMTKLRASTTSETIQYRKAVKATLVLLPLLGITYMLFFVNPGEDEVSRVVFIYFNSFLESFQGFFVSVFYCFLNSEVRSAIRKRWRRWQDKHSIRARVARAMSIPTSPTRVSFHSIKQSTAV
Description: Frozen rat frontal cortex was thawed rapidly in assay buffer containing 50 mM Hepes (pH 7.0 at 23° C.), 10 mM MgCl2, 2 mM EGTA, 1 μg/ml aprotinin, 1 μg/ml leupeptin, 1 Mg/ml pepstatin A, 0.005% Triton X-100, 10 U/ml bacitracin and 0.1% ovalbumin and homogenized. The suspension was centrifuged at 32000×g for 30 minutes. The resulting supernatant was discarded and the pellet resuspended by homogenization in assay buffer and centrifuged again. The supernatant was discarded and the pellet resuspended by homogenization in assay buffer and frozen at −70° C. On the day of the experiment aliquots of the homogenate were thawed quickly and 25 μg/well added to […] ^125I-ovine-CRF (^125I-o-CRF) and drugs in a total volume of 100 μl assay buffer. The assay mixture was incubated for 2 hr at 21° C. Bound and free radioligand were then separated by rapid filtration using glass fiber filters (Whatman GF/B, pretreated with 0.3% PEI (polyethylenimine)) on a Brandel Cell Harvester. Filters were then washed multiple times with ice cold wash buffer (PBS w/o Ca^2+ and Mg^2+, 0.01% Triton X-100; pH 7.0 at 23° C.). Non-specific binding was defined using 1 μM DMP696, a CRF1 selective antagonist [Li, Y-W. et al., CNS Drug Reviews 11: 21-52, (2005)]. Filters were then counted in a Wallac Wizard gamma counter. IC50 values were determined in a five point (five drug concentrations) or ten point (ten drug concentrations) competition assay using non-linear regression by Microsoft Excel-fit. Rat frontal cortex was obtained from Analytical Biological Services, Inc. (Wilmington, Del.). ^125I-ovine-CRF (2200 Ci/mmol) was obtained from PerkinElmer Life Sciences, Inc. (Boston, Mass.).

[2] = test system: Human Y-79 retinoblastoma cells; experiment: Functional Assay (Y-79 cells), CRF-stimulated cAMP production (HTRF); assay type: cell-based; conditions: stimulation of cAMP production in Y-79 cells, n=6
Description: Functional Assay (Y-79 cells).
Human Y-79 retinoblastoma cells were suspended in assay buffer (Hank's Balanced Salt Solution containing 2 mM CaCl2, 5 mM MgCl2, 20 mM HEPES, 1 mM IBMX) and plated at 20,000 cells/well in a 96-well black plate. CRF antagonists (typically 0.01 to 10,000 nM) were then added to wells as needed and allowed to equilibrate with the cells for 30 minutes at 37° C. […] The reaction was terminated by the addition of a lysis solution containing homogeneous time resolved florescence (HTRF) cAMP XL665 conjugate followed by HTRF anti-cAMP cryptate conjugate (CIS bio International). Plates were subsequently incubated at room temperature for 1 hour prior to reading the time-resolved fluorescence signal. The amount of cAMP produced was estimated from a standard curve prepared using known concentrations of cAMP. The percentage inhibition of CRF-induced cAMP production was determined for each compound (triplicate determinations). The effect of CRF antagonists on basal cAMP production (i.e. in the absence of CRF) was also determined.

IC50 ([1]; class symbols) [nM] | further results | Molecule
0.1 to 100 |  | COc1nc(C)c(Nc2nc(Cl)cn([C@H](COC(=O)Nc3ccccc3)C3CC3)c2=O)cc1C [Example 1, (S)-2-(5-Chloro-3-(6-methoxy-2,5-dimethylpyridin-3-ylamino)-2-oxopyrazin-1(2H)-yl)-2-cyclopropylethyl phenylcarbamate]
0.1 to 100 | melting point: 206.5 to 207.2 °C | COc1nc(C)c(Nc2nc(Cl)cn([C@H](COC(=O)Nc3cccc(C#N)c3)C3CC3)c2=O)cc1C [Example 2, (S)-2-(5-Chloro-3-(6-methoxy-2,5-dimethylpyridin-3-ylamino)-2-oxopyrazin-1(2H)-yl)-2-cyclopropylethyl 3-cyanophenylcarbamate]
0.1 to 100 |  | COc1nc(C)c(Nc2nc(Cl)cn([C@H](COC(=O)Nc3cccnc3)C3CC3)c2=O)cc1C [Example 3, (S)-2-(5-Chloro-3-(6-methoxy-2,5-dimethylpyridin-3-ylamino)-2-oxopyrazin-1(2H)-yl)-2-cyclopropylethyl pyridin-3-ylcarbamate]
0.1 to 100 |  | COc1nc(C)c(Nc2nc(Cl)cn([C@H](COC(=O)Nc3ccccc3Cl)C3CC3)c2=O)cc1C [Example 4, (S)-2-(5-Chloro-3-(6-methoxy-2,5-dimethylpyridin-3-ylamino)-2-oxopyrazin-1(2H)-yl)-2-cyclopropylethyl 2-chlorophenylcarbamate]
0.1 to 100 |  | COc1nc(C)c(Nc2nc(Cl)cn([C@H](COC(=O)Nc3ccc(Cl)cc3)C3CC3)c2=O)cc1C [Example 5, (S)-2-(5-Chloro-3-(6-methoxy-2,5-dimethylpyridin-3-ylamino)-2-oxopyrazin-1(2H)-yl)-2-cyclopropylethyl 4-chlorophenylcarbamate]
0.1 to 100 |  | COc1nc(C)c(Nc2nc(Cl)cn([C@H](COC(=O)Nc3cc(Cl)cc(Cl)c3)C3CC3)c2=O)cc1C [Example 6, (S)-2-(5-Chloro-3-(6-methoxy-2,5-dimethylpyridin-3-ylamino)-2-oxopyrazin-1(2H)-yl)-2-cyclopropylethyl 3,5-dichlorophenylcarbamate]
0.1 to 100 |  | COc1nc(C)c(Nc2nc(Cl)cn([C@H](COC(=O)Nc3ccc(Cl)cc3Cl)C3CC3)c2=O)cc1C [Example 7, (S)-2-(5-Chloro-3-(6-methoxy-2,5-dimethylpyridin-3-ylamino)-2-oxopyrazin-1(2H)-yl)-2-cyclopropylethyl 2,4-dichlorophenylcarbamate]
 | IC50 ([1]; numeric values): 4.74 nM | CCCCNC(=O)OC[C@H](C1CC1)n1cc(Cl)nc(Nc2cc(C)c(OC)nc2C)c1=O [Example 8, (S)-2-(5-Chloro-3-(6-methoxy-2,5-dimethylpyridin-3-ylamino)-2-oxopyrazin-1(2H)-yl)-2-cyclopropylethyl butylcarbamate]
0.1 to 100 |  | CCCNC(=O)OC[C@H](C1CC1)n1cc(Cl)nc(Nc2cc(C)c(OC)nc2C)c1=O [Example 9, (S)-2-(5-Chloro-3-(6-methoxy-2,5-dimethylpyridin-3-ylamino)-2-oxopyrazin-1(2H)-yl)-2-cyclopropylethyl propylcarbamate]
0.1 to 100 |  | CCNC(=O)OC[C@H](C1CC1)n1cc(Cl)nc(Nc2cc(C)c(OC)nc2C)c1=O [Example 10, (S)-2-(5-Chloro-3-(6-methoxy-2,5-dimethylpyridin-3-ylamino)-2-oxopyrazin-1(2H)-yl)-2-cyclopropylethyl ethylcarbamate]
 | IC50 ([1]; numeric values): 15.9 nM | CCOc1nc(C)c(NC(=O)OC[C@H](C2CC2)n2cc(Cl)nc(Nc3cc(C)c(OC)nc3C)c2=O)cc1C [Example 11, (S)-2-(5-Chloro-3-(6-methoxy-2,5-dimethylpyridin-3-ylamino)-2-oxopyrazin-1(2H)-yl)-2-cyclopropylethyl 6-ethoxy-2,5-dimethylpyridin-3-ylcarbamate]
0.1 to 100 |  | COc1nc(C)c(NC(=O)OC[C@H](C2CC2)n2cc(Cl)nc(Nc3cc(C)c(OC)nc3C)c2=O)cc1C [Example 12, (S)-2-(5-Chloro-3-(6-methoxy-2,5-dimethylpyridin-3-ylamino)-2-oxopyrazin-1(2H)-yl)-2-cyclopropyl ethyl 6-methoxy-2,5-dimethylpyridin-3-ylcarbamate]
0.1 to 100 |  | COc1ccc(NC(=O)OC[C@H](C2CC2)n2cc(Cl)nc(Nc3cc(C)c(OC)nc3C)c2=O)c(C)n1 [Example 13, (S)-2-(5-Chloro-3-(6-methoxy-2,5-dimethylpyridin-3-ylamino)-2-oxopyrazin-1(2H)-yl)-2-cyclopropylethyl 6-methoxy-2-dimethylpyridin-3-ylcarbamate]
 | IC50 ([1]; numeric values): 0.74 nM | Cc1cc(Nc2nc(Cl)cn([C@H](COC(=O)Nc3ccccc3)C3CC3)c2=O)c(C)nc1OC(F)F [Example 14, (S)-2-(5-Chloro-3-(6-(difluoromethoxy)-2,5-dimethylpyridin-3-ylamino)-2-oxopyrazin-1(2H)-yl)-2-cyclopropylethyl phenylcarbamate]
0.1 to 100 |  | Cc1cc(Nc2nc(Cl)cn([C@H](COC(=O)Nc3cccnc3)C3CC3)c2=O)c(C)nc1OC(F)F [Example 15, (S)-2-(5-Chloro-3-(6-(difluoromethoxy)-2,5-dimethylpyridin-3-ylamino)-2-oxopyrazin-1(2H)-yl)-2-cyclopropylethyl pyridin-3-ylcarbamate]
 | EC50 [2]: 1.11 ± 0.14 nM | Corticotropin releasing factor [CRF]
